Measured values: patent publication US20230295571A1, “COMPOSITIONS AND METHODS FOR STEM CELL CHONDROGENESIS” (Washington University, priority 2020, published 2023)

How the values were obtained:
Assay type in all cases: cell-based, human
[1] = test system: hMSC pellets; assay: Chondrogenesis of hMSC pellets with WNT inhibition (Saf-O, GAG/DNA)
From the text: hMSCs and culture. Discarded and deidentified waste tissue from the iliac crests of adult bone marrow transplant donors was collected in accordance with the institutional review board of Washington University in Saint Louis. Human bone marrow-derived MSCs (hMSCs) were isolated by their physical adherence to plastic culture vessels. Cells were expanded and maintained in an expansion medium consisting of DMEM-low glucose (Thermo Fisher Scientific, #11885092), 1 penicillin/streptomycin (P/S, Thermo Fisher Scientific, #15140-122), 10% lot-selected FBS (Atlanta Biologicals, #S11550), and 1 ng ml^−1 basic fibroblast growth factor (FGF) (R&D Systems, #233-FB). Three individual donors were used as biologic replicates in subsequent experiments.
WNT-C59 and ML329 treatment for WNT and MITF inhibition. For WNT-C59 treatment for WNT inhibition during chondrogenesis, pellets were treated with either 10 ng ml^−1 TGF-β3 (control group) or a combination of 10 ng ml^−1 TGF-β3 and 1 μM WNT-C59 in a chondrogenic medium from d0 to d42 as appropriate. […]
Biochemical analysis of cartilaginous matrix production. […] GAG content, as calculated based on the standard curve, was normalized to double-stranded DNA content to obtain the GAG/DNA ratio.

[2] = test system: hiPSC chondrogenic pellets; assay: Immunohistochemistry of collagens in pellets; conditions: pellet culture
Description: WNT ligands treatment during chondrogenesis. For WNT ligands treatment during chondrogenesis, pellets were treated with either 10 ng ml^−1 TGF-β3 (control group) or a combination of 10 ng ml^−1 TGF-β3 and 100 ng ml^−1 individual WNT ligand (WNT2B, WNT3A, WNT4, WNT5B, or WNT7B, all from R&D system) in chondrogenic medium from d0 to d42 as appropriate. For WNT ligands treatment during the Cp stage, cells were supplemented with either 20 ng ml^−1 BMP4 (R&D Systems, #314-BP-010) alone (control group), a combination of 20 ng ml^−1 BMP4 and 1 μM WNT-059, or a combination of 20 ng ml^−1 BMP4 and 100 ng ml^−1 WNT3A (R&D Systems, #5036-WN-010) in mesodermal differentiation medium from d7 to d12.
Immunohistochemistry. Histologic sections (8 μm thick) of the pellets were rinsed with xylenes three times and rehydrated before labeling. Antigen retrieval was performed with 0.02% proteinase K for 3 min at 37° C. for COL2A1 and COL6A1 and with pepsin for 5 min at room temperature for COL1A1 and COL10A1 followed by peroxidase quench then serum blocking for 30 min at room temperature. […]

[3] = test system: WNT2B, WNT3A, WNT4, WNT5B, WNT7B; assay: Western blots of WNT proteins in d28 pellets
Description: Western blots. To examine the effect of WNT-C59 on WNT inhibition in the pellets at protein levels, Western blot analysis was performed on d28 pellets with or without WNT-C59 treatments. Six to eight pellets per experimental group were pooled and digested with 0.04% Type II collagenase solution in DMEM/F12 for 1 h. Cells were washed once with PBS and lysed in RIPA buffer (Cell Signaling Technology, #9806S) with protease inhibitor (ThermoFisher, #87786) and phosphatase inhibitor (Santa Cruz Biotechnology, #sc-45044). Protein concentration was measured using the BCA Assay (Pierce). Ten micrograms of proteins for each well were separated on 10% sodium dodecyl sulfate-polyacrylamide gel electrophoresis gels with prestained molecular weight markers (Bio-Rad, 161-0374) and transferred to a polyvinylidene fluoride (PVDF) membrane. The PVDF membrane blots were incubated overnight at 4° C. with the following primary antibodies: anti-WNT2B (1:350, Abcam, ab178418), anti-WNT3A (1:1000, Abcam, ab81614), anti-WNT4 (1:500, Abcam, ab91226), anti-WNTSB (1:500, Abcam, ab93134), anti-WNT7B (1:2000, Abcam, ab155313) and anti-GAPDH (1:30000, Proteintech 60004-1-Ig) for loading control, respectively. […] Immunoblots were imaged and analyzed using the iBright FL1000 Imaging System (Thermo Fisher). […]

Cc1cc(-c2ccc(CC(=O)Nc3ccc(-c4cccnc4)cc3)cc2)ccn1 [WNT-C59]
GAG/DNA ratio of hMSC pellets ([1]; donor 1 and donor 3, vs TGF-β3 alone): significantly increased
chondrogenesis of hMSC pellets ([1]; hMSCs from 3 donors, WNT-C59 during pellet culture): increased
COL1A1 and COL10A1 staining/production [2]: low
WNT5B protein [3]: only moderately inhibited
protein levels of WNT2B, WNT3A, WNT4, and WNT7B [3]: decreased
